Measurements published in patent US8252954B2, “Processes for the preparation of calixarene derivatives” (The Curators of The University of Missouri, priority 2007, dated 2012).

Legend:
[1] = test system: Peripheral blood mononuclear cells (PBMC); experiment: Cell viability assay (MTS assay) on PBMC; format: cell-based, human; details: two fold dilutions starting from 10^−4M, FIG. 8 / FIG. 9
Method: Cytotoxicity of these calixarenes were conducted using Peripheral Blood Mononucleus Cell line (PBMC) which were extracted from subjects blood (50 ml sample). Each calixarene compound was tested on three subjects out of a pool of 5 people (all caucasian females of 20-25 years of age). The extracted cell content represent 1% of the blood sample and comprised of Lymphocyte (60%) and monocytes (10-15%). The experiment was conducted by incubating the cells in a 96 well plate in triplicate with the calixarenes for 24 hours at different concentrations at an estimated concentration of 100000 cells per well.
A pipeline was designed to obtain reliable preliminary toxicology data in vitro. The pipeline was designed to allow testing of any particles of interest within a short time frame. […]
PBMC were harvested using the Ficoll method. […] The cells are then suspended in freezing media (10% DMSO in HIFCS) at 10 million cells per ml and stored as 1 ml aliquots in liquid nitrogen until it is ready for use. […]
CellTitre 96© Aqueous One Solution Cell Proliferation Assay was used to measure cell viability. […] The PHA was added to trigger activation of lymphocytes which was hypothesised that it may alter the reading of the MTS assay. […] The plate is further incubated for another 4 hours and is read through a spectrophotometer at 490 nm. […]

[2] = DMSO, room temperature, FIG. 5
[3] = test system: Peripheral blood mononuclear cells (PBMC): lymphocytes and monocytes; experiment: 5 colour flow cytometry of PBMC after exposure to calixarenes; format: cell-based, human; details: 24 hours, 10^-4M, 2.5×10^-5M, 3.13×10^-6M
Method: A 5 colour flow cytometry based assay was done to complement the MTS assay to provide a better snapshot of the toxicology profile of the calixarenes. Four concentrations from the MTS assay graph results (Control, 1, 1/4 dilution and 1/32 dilution) were chosen to illustrate the differences in cell profiles after the exposure of the calixarenes. 500,000 cells in 0.5 ml was cultured with 50 μL of calixarenes in polypropylene tubes (BD Falcon, Sarstedt) for 24 hours at 37° C., 5% CO2, 10° angle with the lid loosely closed. Polypropylene tube cultures were chosen as it provides better yield of monocytes.
After the 24 hour incubation, a cell count was performed to ensure there were at least 200,000 cells in each sample. The cells were centrifuged at 400G for 8 minutes and washed twice with flow buffer (10% bovine serum albumin in 1×PBS) by centrifugation at 400G for 8 minutes. An antibody cocktail of 10 μL annexin V FITC (marker used to detect apoptosis of cells), 5 μL CD3 APC (marker for detection of T-cells), 2.5 μL CD14 PECy7 (marker for detection of monocytes), 5 μL HLA-DR PE (marker for detection of cell activation) and 5 μL 7-AAD (marker to detect cell death) in each tube was prepared. The cells were resuspended in 200 μL of 1× Annexin V binding buffer. 100 μL of the resuspended cells were added to flow tubes containing the antibody cocktail and was incubated at room temperature in the dark for at least 15 minutes. The samples were then read using BD FACS Canto flow cytometer within an hour of antibody incubation. The experiment was replicated in triplicates using PBMC from different individuals.
Lymphocyte and monocyte population characteristics are summarised in the graph in FIG. 8. Lymphocyte and monocyte population numbers are based on total population while apoptotic cells, dead cells, live cells etc are based on their respective populations. Lymphocytes normally make up 60% of total population. […] However, this is most likely due to total lysis of cells, which cannot be detected by dead cell marker. Monocytes normally make up 10-15% of total population. The culturing process seems to cause most monocytes to be apoptotic due to their fragile nature.
Phosphonated calix[5]arene was tested with flow cytometry at the following concentrations; 10^-4M, 2.5×10^-5M (1 in 4 dilution) and 3.13×10^-6M (1 in 32 dilution). Lymphocyte and monocyte population characteristics are summarised in the graph in FIG. 9. Lymphocyte and monocyte population numbers are based on total population while apoptotic cells, dead cells, live cells etc are based on their respective populations. Lymphocytes normally make up 60% of total population. […] However, this is most likely due to total lysis of cells, which cannot be detected by dead cell marker. Monocytes normally make up 10-15% of total population. Culturing process seems to cause most monocytes to be apoptotic due to their fragile nature and this finding is in line with our literature review. There is a decline in monocyte numbers with increasing concentration of this calixarene.

Row | Compound | toxicity judged from cell viability (absorbance) [1] | time over which nano-rafts dissociate into solvated monomeric units [2] | monocyte numbers with increasing concentration [3] | proportion of dead lymphocytes with increasing concentration [3] | live monocytes population numbers with increasing concentration [3]
1 | 5,11,17,23-Tetra(dihydroxyphosphoryl)-25,26,27,28-tetrahydroxycalix[4]arene [phosphonated calix[4]arene] | no significant sign of toxicity | 36 h | slight decline | seems to decline | 
2 | O=P(O)(O)c1cc2c(O)c(c1)Cc1cc(P(=O)(O)O)cc(c1O)Cc1cc(P(=O)(O)O)cc(c1O)Cc1cc(P(=O)(O)O)cc(c1O)Cc1cc(P(=O)(O)O)cc(c1O)C2 [phosphonated calix[5]arene, 5,11,17,23,29-Penta(dihydroxyphosphoryl)-31,32,33,34,35-pentahydroxycalix[5] arene] | less toxicity with this calixarene than with sulphonated calixarenes |  | decline | seems to decline | seems to increase
